In patent US20060167001A1, “Pyridazinone-derivatives as pde4 inhibitors” (priority 2002, published 2006):
Structures can show the parent of a compound that is named as a salt.

What was measured:
[1] = target: T1, PDE3 (cGMP-inhibited) (Homo sapiens, UniProt Q14432); experiment: Inhibition of PDE3 activity, Method A (homogenates of human platelets); assay type: biochemical; details: read-out: PDE3 Inhibition [measured as −logIC50 (mol/l)] (converted)
T1 construct: investigated in homogenates of human platelets; from tissue; host or cells: homogenates of human platelets
T1 sequence (Q14432 whole entry): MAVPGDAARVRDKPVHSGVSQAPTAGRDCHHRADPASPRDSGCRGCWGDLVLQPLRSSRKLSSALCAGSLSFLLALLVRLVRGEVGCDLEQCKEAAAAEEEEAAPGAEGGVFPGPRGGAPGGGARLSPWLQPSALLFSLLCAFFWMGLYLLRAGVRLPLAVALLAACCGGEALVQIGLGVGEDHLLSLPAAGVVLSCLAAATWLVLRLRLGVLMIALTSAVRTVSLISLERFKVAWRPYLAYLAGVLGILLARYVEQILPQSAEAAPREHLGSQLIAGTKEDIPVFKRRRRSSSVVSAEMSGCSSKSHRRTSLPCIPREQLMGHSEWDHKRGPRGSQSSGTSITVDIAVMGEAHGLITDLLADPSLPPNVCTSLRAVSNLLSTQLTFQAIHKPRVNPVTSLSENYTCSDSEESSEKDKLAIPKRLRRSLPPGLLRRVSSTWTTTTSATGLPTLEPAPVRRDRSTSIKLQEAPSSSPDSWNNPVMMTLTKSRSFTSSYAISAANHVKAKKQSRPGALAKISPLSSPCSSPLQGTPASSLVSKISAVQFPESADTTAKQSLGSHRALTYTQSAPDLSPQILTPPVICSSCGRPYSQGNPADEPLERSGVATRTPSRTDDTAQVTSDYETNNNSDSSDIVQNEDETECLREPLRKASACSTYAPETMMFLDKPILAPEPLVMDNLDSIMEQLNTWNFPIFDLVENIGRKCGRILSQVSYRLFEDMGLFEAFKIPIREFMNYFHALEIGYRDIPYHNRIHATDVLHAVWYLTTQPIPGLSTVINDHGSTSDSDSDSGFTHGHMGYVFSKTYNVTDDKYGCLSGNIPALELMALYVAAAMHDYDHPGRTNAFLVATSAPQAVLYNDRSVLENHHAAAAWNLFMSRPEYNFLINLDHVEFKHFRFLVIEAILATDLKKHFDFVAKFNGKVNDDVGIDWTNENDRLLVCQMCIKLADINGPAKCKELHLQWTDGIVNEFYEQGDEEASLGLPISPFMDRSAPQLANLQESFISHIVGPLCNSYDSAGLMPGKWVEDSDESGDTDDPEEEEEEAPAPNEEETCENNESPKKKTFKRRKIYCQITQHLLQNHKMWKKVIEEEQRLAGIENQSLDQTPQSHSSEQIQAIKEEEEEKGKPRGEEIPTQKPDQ
Experimental: The PDE activity was determined according to Thompson et al. (Adv Cycl Nucl Res 10: 69-92, 1979) with some modifications (Bauer and Schwabe, Naunyn-Schmiedeberg's Arch Pharmacol 311: 193-198, 1980). The test samples contained 20 mM Tris (pH 7.4), 5 mM MgCl2, 0.5 μM cAMP or cGMP, [^3H]cAMP or [^3H]cGMP (about 30 000 cpm/sample), the PDE isoenzyme-specific additives described in greater detail below, the indicated concentrations of inhibitor and an aliquot of the enzyme solution in a total sample volume of 200 μl. Dilution series of the compounds according to the invention were prepared in DMSO and further diluted in the samples [1:100 (v/v)], to give the desired end concentration of the inhibitors at a DMSO concentration of 1% (v/v), which for its part has only a minute effect on PDE activity.
After preincubation at 37° C. for 5 minutes, the reaction was started by addition of the substrate (cAMP or cGMP). The samples were incubated at 37° C. for a further 15 min. The reaction was terminated by addition of 50 μl 0.2 N HCl. After cooling on ice for 10 minutes and addition of 25 μg 5′-nucleotidase (snake venom from Crotalus atrox), the mixture was again incubated at 37° C. for 10 mih and the samples were then applied to QAE Sephadex A-25 columns (sample volume 1 ml). The columns were eluted with 2 ml of 30 mM ammonium formate (pH 6.0). The radioactivity of the eluate was measured and corrected by the corresponding blank values (measured in the presence of denatured protein); the blank values were less than 5% of the total radioactivity. In no case did the proportion of hydrolyzed nucleotide exceed 30% of the original substrate concentration.
PDE3 (cGMP-inhibited) was investigated in homogenates of human platelets (see Schudt et al., Biochem Pharmacol 1991: 42, 153-162) using cAMP or cGMP as substrate.
The IC50 values were determined from the concentration-inhibition curves by nonlinear regression.

Row | SMILES | melting point | IC50 [1]
1 | COc1ccc(C2=NN(C3CCN(C(=O)NC(C)(C)C)CC3)C(=O)CC2)cc1OC [Compound 26, 4-[3-(3,4-Dimethoxy-phenyl)-6-oxo-5,6-dihydro-4H-pyridazin-1-yl]-piperidine-1-carboxylic acid tert-butylamide] | 76 to 78 °C | –
2 | COc1ccc(C2=NN(C3CCN(S(=O)(=O)c4ccccc4OC(F)(F)F)CC3)C(=O)CC2)cc1OC [Compound 21, 6-(3,4-Dimethoxy-phenyl)-2-[1-(2-trifluoromethoxy-benzenesulfonyl)-piperidin-4-yl]-4,5-dihydro-2H-pyridazin-3-one] | 118 to 119 °C | 0.1 µM
3 | COc1ccc(C2=NN(C3CCN(S(=O)(=O)N(C)C)CC3)C(=O)CC2)cc1OC [Compound 22, 4-[3-(3,4-Dimethoxy-phenyl)-6-oxo-5,6-dihydro-4H-pyridazin-1-yl]-piperidine-1-sulfonic acid dimethylamide] | 103 to 106 °C | –
4 | COc1ccc(C2=NN(C3CCN(S(=O)(=O)c4cccc5c(N(C)C)cccc45)CC3)C(=O)CC2)cc1OC [Compound 9, 6-(3,4-Dimethoxy-phenyl)-2-[1-(5-dimethylamino-naphthalene-1-sulfonyl)-piperidin-4-yl]-4,5-dihydro-2-pyridazin-3-one] | 191 to 193 °C | 0.245 µM
5 | COc1ccc(C2=NN(C3CCN(C(=O)N4CCOCC4)CC3)C(=O)CC2C)cc1OC (stereo not drawn) [Compound 5] | 137 to 138 °C | 1.78 µM
6 | COc1ccc(C2=NN(C3CCN(S(=O)(=O)Cc4ccccc4)CC3)C(=O)CC2)cc1OC [Compound 14, 6-(3,4-Dimethoxy-phenyl)-2-(1-phenylmethanesulfonyl-piperidin-4-yl)-4,5-dihydro-2H-pyridazin-3-one] | 114 °C | 0.251 µM
7 | COc1ccc(C2=NN(C3CCN(CC(=O)N4CCOCC4)CC3)C(=O)CC2)cc1OC (as salt: hydrochloride) [Compound 10, 6-(3,4-Dimethoxy-phenyl)-2-[1-(2-morpholin4-yl-2-oxo-ethyl)-piperidin-4-yl]-4,5-dihydro-2-pyridazin-3-one hydrochloride] | 145 to 148 °C | –
8 | COc1ccc(C2=NN(C3CCN(S(=O)(=O)c4ccccc4C#N)CC3)C(=O)CC2)cc1OC [Compound 18, 2-{4-[3-(3,4-Dimethoxy-phenyl)-6-oxo-5,6-dihydro-4H-pyridazin-1-yl]-piperidine-1-sulfonyl}-benzonitrile] | 158 to 160 °C | 0.0794 µM
9 | COc1ccc(S(=O)(=O)N2CCC(N3N=C(c4ccc(OC)c(OC)c4)CCC3=O)CC2)cc1 [Compound 15, 6-(3,4-Dimethoxy-phenyl)-2-[1-(4-methoxy-benzenesulfonyl)-piperidin-4-yl]-4,5-dihydro-2H-pyridazin-3-one] | 197 to 198 °C | 0.501 µM
10 | COc1ccc(C2=NN(C3CCN(S(=O)(=O)c4ccc(C)cc4)CC3)C(=O)CC2)cc1OC [Compound 11, 6-(3,4-Dimethoxy-phenyl)-2-[1-(toluene-4-sulfonyl)-piperidin-4-yl]-4,5-dihydro-2H-pyridazin-3-one] | 179 to 184 °C | 0.501 µM
11 | COc1ccc(C2=NN(C3CCN(CC(=O)N(C)C)CC3)C(=O)CC2)cc1OC.Cl [Compound 27, 2-{4-[3-(3,4-Dimethoxy-phenyl)-6-oxo-5,6-dihydro-4H-pyridazin-1-yl]-piperidin-1-yl}-N,N-dimethylacetamide hydrochloride] | 121 to 122 °C | > 10 µM
12 | COc1ccc(C2=NN(C3CCN(C(=O)c4cccnc4)CC3)C(=O)CC2)cc1OC [Compound 24, 6-(3,4-Dimethoxy-phenyl)-2-[1-(1-pyridin-3-yl-methanoyl)-piperidin-4-yl]-4,5-dihydro-2H-pyridazin-3-one] | 162 to 164 °C | –
13 | COc1ccc(C2=NN(C3CCN(C(C)=O)CC3)C(=O)CC2C)cc1OC (stereo not drawn) [Compound 4, 2-(1-Acetyl-piperidin-4-yl)-6-(3,4-dimethoxy-phenyl)-5-methyl-4,5-dihydro-2H-pyridazin-3-one] | 149 to 152 °C | 1.74 µM
14 | COc1ccc(C2=NN(C3CCN(S(=O)(=O)c4ccc(Cl)cc4)CC3)C(=O)CC2)cc1OC [Compound 13, 2-[1-(4-Chloro-benzenesulfonyl)-piperidin-4-yl]-6-(3,4-dimethoxy-phenyl)-4,5-dihydro-2H-pyridazin-3-one] | 185 to 186 °C | –
15 | CCN1CCN(C(=O)N2CCC(N3N=C(c4ccc(OC)c(OC)c4)CCC3=O)CC2)C(=O)C1=O [Compound 7] | 201 to 203 °C | > 10 µM
16 | COc1ccc(C2=NN(C3CCN(Cc4cccnc4)CC3)C(=O)CC2C)cc1OC.Cl.Cl (stereo not drawn) [Compound 6, 6-(3,4-Dimethoxy-phenyl)-5-methyl-2-(1-pyridin-3-ylmethyl-piperidin-4-yl)-4,5-dihydro-2H-pyridazin-3-one dihydrochloride] | 241 to 244 °C | 5.89 µM
17 | COc1ccc(C2=NN(C3CCN(C(=O)CN4CCN(c5ccccc5OC)CC4)CC3)C(=O)CC2)cc1OC.Cl.Cl | 109 to 110 °C | –
18 | COc1ccc(C2=NN(C3CCNCC3)C(=O)CC2C)cc1OC.Cl (stereo not drawn) | 91 to 95 °C | –
19 | COc1ccc(C2=NN(C3CCN(S(=O)(=O)c4ccccc4F)CC3)C(=O)CC2)cc1OC [Compound 20, 6-(3,4-Dimethoxy-phenyl)-2-[1-(2-fluoro-benzenesulfonyl)-Piperidin-4-yl]-4,5-dihydro-2H-pyridazin-3-one] | 198 to 199 °C | 0.158 µM
20 | COc1ccc(C2=NN(C3CCN(CC(=O)N4CCOCC4)CC3)C(=O)CC2)cc1OC [Compound 10, 6-(3,4-Dimethoxy-phenyl)-2-[1-(2-morpholin4-yl-2-oxo-ethyl)-piperidin-4-yl]-4,5-dihydro-2-pyridazin-3-one hydrochloride] | – | 4.47 µM
21 | COc1ccc(C2=NN(C3CCN(S(C)(=O)=O)CC3)C(=O)CC2)cc1OC [Compound 12, 6-(3,4-Dimethoxy-phenyl)-2-(1-methanesulfonyl-piperidin-4-yl)-4,5-dihydro-2H-pyridazin-3-one] | 164 to 166 °C | 0.251 µM
22 | COc1ccc(C2=NN(C3CCN(C(=O)N4CCN(C)CC4)CC3)C(=O)CC2)cc1OC.Cl [Compound 8, 6-(3,4-Dimethoxy-phenyl)-2-{1-[1-(4-methyl-piperazin-1-yl)-methanoyl]-piperidin-4-yl}-4,5-dihydro-2H-pyridazin-3-one hydrochloride] | 151 to 154 °C | > 10 µM
